Assays:
[1] = target: T1, human DP2 receptor (Homo sapiens, UniProt Q9Y5Y4); test: DP2/CRTH2 radioligand binding assay using [3H]PGD2; conditions: hDP2 (CRTH2) binding assay
T1 construct: expressed in transfected cells
T1 sequence (Q9Y5Y4 1-395): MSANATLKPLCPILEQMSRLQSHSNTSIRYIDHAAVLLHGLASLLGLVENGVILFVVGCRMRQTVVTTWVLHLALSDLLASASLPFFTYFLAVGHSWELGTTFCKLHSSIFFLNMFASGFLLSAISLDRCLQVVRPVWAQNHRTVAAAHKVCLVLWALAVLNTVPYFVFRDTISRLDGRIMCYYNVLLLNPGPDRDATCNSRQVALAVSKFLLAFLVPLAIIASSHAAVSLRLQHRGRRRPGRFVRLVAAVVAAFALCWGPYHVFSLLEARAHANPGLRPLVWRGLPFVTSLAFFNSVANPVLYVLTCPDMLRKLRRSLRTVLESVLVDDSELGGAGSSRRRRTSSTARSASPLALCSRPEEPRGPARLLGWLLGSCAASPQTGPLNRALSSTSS
Method: The ability of a compound to bind to the human DP2 receptor is assessed via a radioligand binding assay using [^3H]PGD2. HEK293 cells stably expressing recombinant human DP2 are resuspended in 10 mM Hepes, 7.4 containing 1 mM DTT, lysed and centrifuged at 75,000×g to pellet the membranes. The membranes are resuspended in 10 mM Hepes, 7.4 containing 1 mM DTT and 10% glycerol to approximately 5 mg protein/ml. Membranes (2-10 μg protein/well) are incubated in 96-well plates with 1 nM [^3H]PGD2 and test compound in Assay Buffer (50 mM Hepes, 10 mM MnCl2, 1 mM EDTA, plus or minus 0.2% human serum albumin, pH 7.4) for 60 minutes at room temperature. The reactions are terminated by rapid filtration through Whatman GF/C glass fibre filter plates. The filter plates were pre-soaked in 0.33% polythylenimine for 30 minutes at room temperature then washed in Wash Buffer (50 mM Hepes, 0.5 M NaCl pH 7.4) prior to harvesting. After harvesting, the filter plates are washed 3 times with 1 ml cold Wash Buffer then dried. Scintillant is then added to the plates and the radioactivity retained on the filters is determined on a Packard TopCount (Perkin Elmer). Specific binding is determined as total radioactive binding minus non-specific binding in the presence of 10 μM PGD2. IC50s were determined using GraphPad prism analysis of drug titration curves.

[2] = target: T2, recombinant human CRTH2 receptor (Homo sapiens, UniProt Q9Y5Y4); test: GTPγS binding assay; assay type: biochemical; conditions: +HSA; read-out: hDP2 GTPγS μM (+HSA)
T2 construct: expressed in transfected cells
T2 sequence (Q9Y5Y4 1-395): T1 sequence (Q9Y5Y4 1-395)
Method: The ability of a compound to inhibit binding of GTP to DP2 is assessed via a membrane GTPγS assay. CHO cells stably expressing the recombinant human CRTH2 receptor are resuspended in 10 mM Hepes, 7.4 containing 1 mM DTT, lysed and centrifuged at 75,000×g to pellet the membranes. The membranes are resuspended in 10 mM Hepes, 7.4 containing 1 mM DTT and 10% glycerol. Membranes (˜12.5 μg per well) are incubated in 96-well plates with 0.05 nM [^35S]-GTPγS, 80 nM PGD2, 5 μM GDP, and test compound in Assay Buffer (50 mM Hepes, pH 7.4, 100 mM NaCl, 5 mM MgCl2 and 0.2% human serum albumin) for 60 minutes at 30° C. The reactions are terminated by rapid filtration through Whatman GF/B glass fibre filter plates. The filter plates are washed 3 times with 1 ml cold Assay Buffer and dried. Scintillant is then added to the plates and the radioactivity retained on the filters is determined on a Packard TopCount (Perkin Elmer). Specific binding is determined as total radioactive binding minus non-specific binding in the absence of the ligand (80 nM PGD2). IC50s were determined using Graphpad prism analysis of drug titration curves.

[3] = target: T3, human DP1 receptor (Homo sapiens, UniProt Q13258); test: DP1 radioligand binding assay using [3H]BWA868C; conditions: hDP1 binding
T3 construct: tissue Biological Specialty Corporation; host or cells: human platelets, membranes
T3 sequence (Q13258 1-359): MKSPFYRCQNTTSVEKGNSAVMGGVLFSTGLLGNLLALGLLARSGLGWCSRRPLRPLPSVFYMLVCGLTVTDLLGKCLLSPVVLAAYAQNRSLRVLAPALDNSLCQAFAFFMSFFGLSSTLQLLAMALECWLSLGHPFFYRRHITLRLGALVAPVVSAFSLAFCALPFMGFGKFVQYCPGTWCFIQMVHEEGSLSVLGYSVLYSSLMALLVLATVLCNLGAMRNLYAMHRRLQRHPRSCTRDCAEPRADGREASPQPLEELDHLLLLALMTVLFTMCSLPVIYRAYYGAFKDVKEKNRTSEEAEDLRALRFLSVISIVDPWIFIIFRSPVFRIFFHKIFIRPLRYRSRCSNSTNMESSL
Method: The ability of a compound to bind to the human DP1 receptor was evaluated via a radioligand membrane binding assay using the DP1 selective synthetic ligand [^3H]BW A868C. Packed human platelets (Biological Specialty Corporation), were resuspended in 6 volumes of Hepes/HBSS buffer (10 mM Hepes, 1 mM DTT in Hanks Balanced Salt Solution (HBSS)), lysed and centrifuged at 75,000×g to pellet the membranes. Membranes were resuspended in Hepes/HBSS buffer to approximately 12 mg protein/ml. Membranes (20 μg protein/well) are incubated in 96-well plates with 2 nM [^3H]BWA868C and test compound in Assay Buffer (50 mM Hepes, 10 mM MnCl2, 1 mM EDTA, plus or minus 0.2% human serum albumin, pH 7.4) for 60 minutes at room temperature. The reactions are terminated by rapid filtration through Whatman GF/C glass fibre filter plates. The filter plates were pre-soaked in 0.33% polethylenimine for 30 minutes at room temperature then washed in Wash Buffer (50 mM Hepes, 0.5 M NaCl pH 7.4) prior to harvesting. After harvesting, the filter plates are washed 3 times with 1 ml cold Wash Buffer then dried. Scintillant is then added to the plates and the radioactivity retained on the filters is determined on a Packard TopCount (Perkin Elmer). Specific binding is determined as total radioactive binding minus non-specific binding in the presence of 10 μM BW A868C. IC50s were determined using GraphPad prism analysis of drug titration curves.

SMILES: O=C(O)Cc1cccc(Oc2ccc(-c3cccnc3)cc2CN2CCOC2=O)c1 [Compound 1-8, {3-[2-(2-Oxo-oxazolidin-3-ylmethyl)-4-pyridin-3-yl-phenoxy]-phenyl}-acetic acid]
- IC50 [1]: < 300 nM
- IC50 [2]: > 1 µM
- IC50 [3]: > 1000 nM

SMILES: COc1ccc(CC(=O)O)cc1Oc1ccc(C(F)(F)F)cc1CN1CCOC1=O [Compound 1-9, {4-Methoxy-3-[2-(2-oxo-oxazolidin-3-ylmethyl)-4-trifluoromethyl-phenoxy]-phenyl}-acetic acid]
- IC50 [1]: < 300 nM
- IC50 [2]: < 0.3 µM
- IC50 [3]: > 1000 nM

SMILES: CC(C(=O)O)c1cccc(Oc2ccc(C(F)(F)F)cc2CN2CCOC2=O)c1 (stereo not drawn) [Compound 1-10, 2-{3-[2-(2-Oxo-oxazolidin-3-ylmethyl)-4-trifluoromethyl-phenoxy]-phenyl}-propionic acid]
- IC50 [1]: < 300 nM
- IC50 [2]: > 1 µM
- IC50 [3]: > 1000 nM

SMILES: O=C(O)Cc1cc(Oc2ccc(C(F)(F)F)cc2CN2CCOC2=O)ccc1-c1ccccc1 [Compound 1-13, {4-[2-(2-Oxo-oxazolidin-3-ylmethyl)-4-trifluoromethyl-phenoxy]-biphenyl-2-yl}-acetic acid]
- IC50 [1]: < 300 nM
- IC50 [2]: 0.3 to 1 µM
- IC50 [3]: < 300 nM

SMILES: COc1ccc(CC(=O)O)cc1Oc1ccc(Br)cc1CN1CCOC1=O [Compound 1-14, {3-[4-Bromo-2-(2-oxo-oxazolidin-3-ylmethyl)-phenoxy]-4-methoxy-phenyl}-acetic acid]
- IC50 [1]: < 300 nM
- IC50 [2]: < 0.3 µM
- IC50 [3]: > 1000 nM

SMILES: C[C@H]1[C@@H](c2ccccc2)OC(=O)N1Cc1cc(Br)ccc1Oc1cccc(CC(=O)O)c1 [Compound 1-15, {3-[4-Bromo-2-((4S,5R)-4-methyl-2-oxo-5-phenyl-oxazolidin-3-ylmethyl)-phenoxy]-phenyl}-acetic acid]
- IC50 [1]: < 300 nM
- IC50 [2]: 0.3 to 1 µM
- IC50 [3]: < 300 nM

SMILES: C[C@H]1[C@@H](c2ccc(Cl)cc2)OC(=O)N1Cc1cc(Br)ccc1Oc1cccc(CC(=O)O)c1 [Compound 1-16, (3-{4-Bromo-2-[(4S,5R)-5-(4-chloro-phenyl)-4-methyl-2-oxo-oxazolidin-3-ylmethyl]-phenoxy}-phenyl)-acetic acid]
- IC50 [1]: < 300 nM
- IC50 [2]: > 1 µM
- IC50 [3]: < 300 nM

SMILES: C[C@H]1[C@@H](c2cc(F)cc(F)c2)OC(=O)N1Cc1cc(Br)ccc1Oc1cccc(CC(=O)O)c1 [Compound 1-17, (3-{4-Bromo-2-[(4S,5R)-5-(3,5-difluoro-phenyl)-4-methyl-2-oxo-oxazolidin-3-ylmethyl]-phenoxy}-phenyl)-acetic acid]
- IC50 [1]: < 300 nM
- IC50 [2]: < 0.3 µM
- IC50 [3]: < 300 nM

SMILES: C[C@H]1[C@@H](c2cc(C(F)(F)F)cc(C(F)(F)F)c2)OC(=O)N1Cc1cc(Br)ccc1Oc1cccc(CC(=O)O)c1 [Compound 1-18, (3-{2-[(4S,5R)-5-(3,5-Bis-trifluoromethyl-phenyl)-4-methyl-2-oxo-oxazolidin-3-ylmethyl]-4-bromo-phenoxy}-phenyl)-acetic acid]
- IC50 [1]: < 300 nM
- IC50 [2]: < 0.3 µM
- IC50 [3]: < 300 nM

SMILES: C[C@H]1[C@@H](c2ccccc2)OC(=O)N1Cc1cc(-c2cncn2C)ccc1Oc1cccc(CC(=O)O)c1 [Compound 1-22, {3-[4-(3-Methyl-3H-imidazol-4-yl)-2-((4S,5R)-4-methyl-2-oxo-5-phenyl-oxazolidin-3-ylmethyl)-phenoxy]-phenyl}-acetic acid]
- IC50 [1]: < 300 nM
- IC50 [2]: > 1 µM
- IC50 [3]: 300 to 1000 nM

SMILES: C[C@H]1[C@@H](c2ccccc2)OC(=O)N1Cc1cc(Br)ccc1Oc1ccc(Cl)c(CC(=O)O)c1 [Compound 1-24, {5-[4-Bromo-2-((4S,5R)-4-methyl-2-oxo-5-phenyl-oxazolidin-3-ylmethyl)-phenoxy]-2-chloro-phenyl}-acetic acid]
- IC50 [1]: 300 to 1000 nM
- IC50 [2]: > 1 µM
- IC50 [3]: < 300 nM

SMILES: C[C@H]1[C@@H](c2ccccc2)OC(=O)N1Cc1cc(Br)ccc1Oc1ccc(C(F)(F)F)c(CC(=O)O)c1 [Compound 1-25, {5-[4-Bromo-2-((4S,5R)-4-methyl-2-oxo-5-phenyl-oxazolidin-3-ylmethyl)-phenoxy]-2-trifluoromethyl-phenyl}-acetic acid]
- IC50 [1]: 300 to 1000 nM
- IC50 [2]: > 1 µM
- IC50 [3]: > 1000 nM

SMILES: C[C@H]1[C@@H](c2ccccc2)OC(=O)N1Cc1cc(Br)ccc1Oc1cc(F)cc(CC(=O)O)c1 [Compound 1-26, {3-[4-Bromo-2-((4S,5R)-4-methyl-2-oxo-5-phenyl-oxazolidin-3-ylmethyl)-phenoxy]-5-fluoro-phenyl}-acetic acid]
- IC50 [1]: < 300 nM
- IC50 [2]: < 0.3 µM
- IC50 [3]: < 300 nM

SMILES: C[C@H]1[C@@H](c2ccccc2)OC(=O)N1Cc1cc(Br)ccc1Oc1cc(Cl)cc(CC(=O)O)c1 [Compound 1-27, {3-[4-Bromo-2-((4S,5R)-4-methyl-2-oxo-5-phenyl-oxazolidin-3-ylmethyl)-phenoxy]-5-chloro-phenyl}-acetic acid]
- IC50 [1]: < 300 nM
- IC50 [2]: < 0.3 µM
- IC50 [3]: < 300 nM

SMILES: C[C@H]1[C@@H](c2ccccc2)OC(=O)N1Cc1cc(Br)ccc1Oc1cc(CC(=O)O)cc(C(F)(F)F)c1 [Compound 1-28, {3-[4-Bromo-2-((4S,5R)-4-methyl-2-oxo-5-phenyl-oxazolidin-3-ylmethyl)-phenoxy]-5-trifluoromethyl-phenyl}-acetic acid]
- IC50 [1]: < 300 nM
- IC50 [2]: < 0.3 µM
- IC50 [3]: > 1000 nM

SMILES: C[C@H]1[C@@H](c2ccccc2)OC(=O)N1Cc1cc(Br)ccc1Oc1cc(CC(=O)O)ccc1Cl [Compound 1-29, {3-[4-Bromo-2-((4S,5R)-4-methyl-2-oxo-5-phenyl-oxazolidin-3-ylmethyl)-phenoxy]-4-chloro-phenyl}-acetic acid]
- IC50 [1]: < 300 nM
- IC50 [2]: > 1 µM
- IC50 [3]: > 1000 nM

SMILES: COc1ccc(CC(=O)O)cc1Oc1ccc(Br)cc1CN1C(=O)O[C@H](c2ccccc2)[C@@H]1C [Compound 1-30, {3-[4-Bromo-2-((4S,5R)-4-methyl-2-oxo-5-phenyl-oxazolidin-3-ylmethyl)-phenoxy]-4-methoxy-phenyl}-acetic acid]
- IC50 [1]: < 300 nM
- IC50 [2]: 0.3 to 1 µM
- IC50 [3]: > 1000 nM
